Patent US20240400576A1, “NITROGEN-CONTAINING DERIVATIVES OF SALINOMYCIN, SYNTHESIS AND USES THEREOF” (Centre National de la Recherche Scientifique, priority 2021, published 2024)
Where two headings read alike, the source gives them in different places.

Tests used:
[1] = tested on: HMLER CD24^low/CD44^high cells; test: Cell viability assay (CellTiter-Blue, 72 h) in HMLER breast cancer stem cell model; type: cell-based, human; conditions: for Selectivity: ratio of the IC50 ID2 to the IC50 HMLER; for IC50: Homo sapiens
Procedure: (§1) The compounds have been evaluated against a model of breast cancer stem cells (HMLER) and matching non-stem cells (namely ID2 of HIMLER CD24^high/CD4^high/low), and in MCF10A cells (normal breast cell line).
(§2) Each IC50 value was determined in biological triplicate (three independent biological experiments), and each triplicate was determined in at least technical duplicate.
HMLER cells naturally repressing E-cadherin, obtained from human mammary epithelial cells infected with a retrovirus carrying hTERT, SV40, and the oncogenic allele H-rasV12, were cultured in DMEM/F12 (Gibco, 31331-028) supplemented with 10% FBS, 10 μg/mL insulin (Sigma-Aldrich, 10516), 0.5 ug/mL hydrocortisone (Sigma-Aldrich, H0888), and 0.5 ug/mL puromycin (Life Technologies, A11138-02); cells were a generous gift from Alain Puisieux (INSERM). All cells were incubated at 37° C. with 5% CO2. HMLER CD44low/high cells stained with CD24-APC and CD44-PE antibodies were sorted by FACS using an Aria Ilu (BD Biosciences) to obtain isolated CD24^low/CD44^high and CD24^high/CD44^low cell populations. HMLER CD24^low/CD44^high cells were supplemented with 10 ng/ml human epidermal growth factor (EGF, Miltenyi Biotec, 130-093-750, 100 ng/ml), while HMLER CD24^high/CD44^low cells were grown without EGF. MCF10A cells (ATCC, CRL-10317) were cultured in DMEM/F12 supplemented with 10% horse serum (Invitrogen, 16050-122), 10 μg/mL insulin, 10 ng/ml EGF, 0.5 μg/mL hydrocortisone, 100 ng/ml cholera toxin (Sigma-Aldrich, C8052), and 1× PenStrep (Invitrogen, 15070-063).
The cell viability assay was carried out by plating 1000 cells per well in 96-well plates. The cells were treated for 72 h in a range between 12 nM and 50 µM or 0.3 nM and 4 μM using serial dilutions following the manufacturer's protocol. Very briefly, the CellTiter-Blue reagent (G8081, Promega) was added to the wells after 72 h of treatment, and cells were incubated for 3 h before fluorescence intensities (λex=560/20 nm; λem=590/10 nm) were recorded using a PerkinElmer Wallac 1420 Victor2 microplate reader. The IC50 cell viability curves were plotted using the Prism 8 software for the synthesized compounds against HMLER CD24^low/CD44^high and the isogenic cell line HMLER CD24^high/CD44^low.
All derivatives were assessed for their antiproliferative activity and selectivity toward a well-established model of mesenchymal CSCs (HMLER CD24^low/CD44^high) together with their epithelial counterparts (HMLER CD24^high/CD44^low) lacking CSC properties. […] Specifically, compounds 6, 8, and 9 were identified to be particularly interesting in this context, with IC50 values of 30, 3, and 9 nM, respectively, together with their outstanding selectivities (Sls between 20.0 and 90.0).

[2] = tested on: ID2 (HMLER CD24^high/CD44^low) cells; test: Cell viability assay (CellTiter-Blue, 72 h) in ID2 matching non-stem cells; type: cell-based; conditions: Homo sapiens, read-out: ID2 cancer cells (IC50, μM)
Procedure: as §1
Each IC50 value was determined in biological triplicate (three independent biological experiments), and each triplicate was determined in at least technical duplicate. […]
(§3) The cell viability assay was carried out by plating 1000 cells per well in 96-well plates. […] Very briefly, the CellTiter-Blue reagent (G8081, Promega) was added to the wells after 72 h of treatment, and cells were incubated for 3 h before fluorescence intensities (λex=560/20 nm; λem=590/10 nm) were recorded using a PerkinElmer Wallac 1420 Victor2 microplate reader. […]
All derivatives were assessed for their antiproliferative activity and selectivity toward a well-established model of mesenchymal CSCs (HMLER CD24^low/CD44^high) together with their epithelial counterparts (HMLER CD24^high/CD44^low) lacking CSC properties. […]

MCF10A cells = test: Cell viability assay (CellTiter-Blue, 72 h) in MCF10A normal breast cell line; type: cell-based; conditions: Homo sapiens, MCF-10A, read-out: MCF10A (IC50, μM)
Procedure: as §1, §2
HMLER cells naturally repressing E-cadherin, obtained from human mammary epithelial cells infected with a retrovirus carrying hTERT, SV40, and the oncogenic allele H-rasV12, were cultured in DMEM/F12 (Gibco, 31331-028) supplemented with 10% FBS, 10 μg/mL insulin (Sigma-Aldrich, 10516), 0.5 ug/mL hydrocortisone (Sigma-Aldrich, H0888), and 0.5 ug/mL puromycin (Life Technologies, A11138-02); cells were a generous gift from Alain Puisieux (INSERM). All cells were incubated at 37° C. with 5% CO2. […]
as §3

[3] = cell viability, 72 h treatment, CellTiter-Blue, biological triplicate, read-out: HMLER cancer cells (IC50)
[4] = 72 h, read-out: HMLER cancer cells (IC50, μM)

SMILES | Selectivity [1] | also measured
CCN[C@H]1C=C[C@]2(O[C@H]([C@@H](CC)C(=O)[C@@H](C)[C@@H](O)[C@H](C)[C@@H]3O[C@@H]([C@@H](CC)C(=O)[O-])CC[C@@H]3C)[C@@H](C)C[C@H]2C)O[C@@]12CC[C@@](C)([C@H]1CC[C@](O)(CC)[C@H](C)O1)O2.[Na+] [Compound 1] | 6.1 | 
CCCN[C@H]1C=C[C@]2(O[C@H]([C@@H](CC)C(=O)[C@@H](C)[C@@H](O)[C@H](C)[C@@H]3O[C@@H]([C@@H](CC)C(=O)[O-])CC[C@@H]3C)[C@@H](C)C[C@H]2C)O[C@@]12CC[C@@](C)([C@H]1CC[C@](O)(CC)[C@H](C)O1)O2.[Na+] [Compound 2] | 10.1 | 
CCCCN[C@H]1C=C[C@]2(O[C@H]([C@@H](CC)C(=O)[C@@H](C)[C@@H](O)[C@H](C)[C@@H]3O[C@@H]([C@@H](CC)C(=O)[O-])CC[C@@H]3C)[C@@H](C)C[C@H]2C)O[C@@]12CC[C@@](C)([C@H]1CC[C@](O)(CC)[C@H](C)O1)O2.[Na+] [Compound 3] | 15.2 | 
CC[C@@H](C(=O)[C@@H](C)[C@@H](O)[C@H](C)[C@@H]1O[C@@H]([C@@H](CC)C(=O)[O-])CC[C@@H]1C)[C@H]1O[C@]2(C=C[C@H](NCC(C)C)[C@]3(CC[C@@](C)([C@H]4CC[C@](O)(CC)[C@H](C)O4)O3)O2)[C@H](C)C[C@@H]1C.[Na+] [Compound 4] | 11.0 | 
CCCCCN[C@H]1C=C[C@]2(O[C@H]([C@@H](CC)C(=O)[C@@H](C)[C@@H](O)[C@H](C)[C@@H]3O[C@@H]([C@@H](CC)C(=O)[O-])CC[C@@H]3C)[C@@H](C)C[C@H]2C)O[C@@]12CC[C@@](C)([C@H]1CC[C@](O)(CC)[C@H](C)O1)O2.[Na+] [Compound 5] | 10.8 | 
CCCCCCN[C@H]1C=C[C@]2(O[C@H]([C@@H](CC)C(=O)[C@@H](C)[C@@H](O)[C@H](C)[C@@H]3O[C@@H]([C@@H](CC)C(=O)[O-])CC[C@@H]3C)[C@@H](C)C[C@H]2C)O[C@@]12CC[C@@](C)([C@H]1CC[C@](O)(CC)[C@H](C)O1)O2.[Na+] [Compound 6] | 24.7 | IC50 [1, 3]: 0.03 ± 0.01 µM
CCCCCCCCCCCCN[C@H]1C=C[C@]2(O[C@H]([C@@H](CC)C(=O)[C@@H](C)[C@@H](O)[C@H](C)[C@@H]3O[C@@H]([C@@H](CC)C(=O)[O-])CC[C@@H]3C)[C@@H](C)C[C@H]2C)O[C@@]12CC[C@@](C)([C@H]1CC[C@](O)(CC)[C@H](C)O1)O2.[Na+] [Compound 7] | 4.1 | 
CC[C@@H](C(=O)[C@@H](C)[C@@H](O)[C@H](C)[C@@H]1O[C@@H]([C@@H](CC)C(=O)[O-])CC[C@@H]1C)[C@H]1O[C@]2(C=C[C@H](N(CC)CC)[C@]3(CC[C@@](C)([C@H]4CC[C@](O)(CC)[C@H](C)O4)O3)O2)[C@H](C)C[C@@H]1C.[Na+] [Compound 8] | 90.0 | IC50 [1, 3]: 0.003 ± 0.0005 µM
CCCN(CCC)[C@H]1C=C[C@]2(O[C@H]([C@@H](CC)C(=O)[C@@H](C)[C@@H](O)[C@H](C)[C@@H]3O[C@@H]([C@@H](CC)C(=O)[O-])CC[C@@H]3C)[C@@H](C)C[C@H]2C)O[C@@]12CC[C@@](C)([C@H]1CC[C@](O)(CC)[C@H](C)O1)O2.[Na+] [Compound 9] | 20.0 | IC50 [1, 3]: 0.009 ± 0.0002 µM
CCCCN(CCCC)[C@H]1C=C[C@]2(O[C@H]([C@@H](CC)C(=O)[C@@H](C)[C@@H](O)[C@H](C)[C@@H]3O[C@@H]([C@@H](CC)C(=O)[O-])CC[C@@H]3C)[C@@H](C)C[C@H]2C)O[C@@]12CC[C@@](C)([C@H]1CC[C@](O)(CC)[C@H](C)O1)O2.[Na+] [Compound 10] | 7.6 | 
CCCCCN(CCCCC)[C@H]1C=C[C@]2(O[C@H]([C@@H](CC)C(=O)[C@@H](C)[C@@H](O)[C@H](C)[C@@H]3O[C@@H]([C@@H](CC)C(=O)[O-])CC[C@@H]3C)[C@@H](C)C[C@H]2C)O[C@@]12CC[C@@](C)([C@H]1CC[C@](O)(CC)[C@H](C)O1)O2.[Na+] [Compound 11] | 7.7 | 
CCCCCCN(CCCCCC)[C@H]1C=C[C@]2(O[C@H]([C@@H](CC)C(=O)[C@@H](C)[C@@H](O)[C@H](C)[C@@H]3O[C@@H]([C@@H](CC)C(=O)[O-])CC[C@@H]3C)[C@@H](C)C[C@H]2C)O[C@@]12CC[C@@](C)([C@H]1CC[C@](O)(CC)[C@H](C)O1)O2.[Na+] [Compound 12] | 13.3 | 
CCCCCCCCCCCCN(CCCCCCCCCCCC)[C@H]1C=C[C@]2(O[C@H]([C@@H](CC)C(=O)[C@@H](C)[C@@H](O)[C@H](C)[C@@H]3O[C@@H]([C@@H](CC)C(=O)[O-])CC[C@@H]3C)[C@@H](C)C[C@H]2C)O[C@@]12CC[C@@](C)([C@H]1CC[C@](O)(CC)[C@H](C)O1)O2.[Na+] [Compound 13] | 5.2 | 
CC[C@@H](C(=O)[C@@H](C)[C@@H](O)[C@H](C)[C@@H]1O[C@@H]([C@@H](CC)C(=O)[O-])CC[C@@H]1C)[C@H]1O[C@]2(C=C[C@H](NCc3ccccc3)[C@]3(CC[C@@](C)([C@H]4CC[C@](O)(CC)[C@H](C)O4)O3)O2)[C@H](C)C[C@@H]1C.[Na+] [Compound 14] | 6.2 | 
CC[C@@H](C(=O)[C@@H](C)[C@@H](O)[C@H](C)[C@@H]1O[C@@H]([C@@H](CC)C(=O)[O-])CC[C@@H]1C)[C@H]1O[C@]2(C=C[C@H](NCc3ccc(O)cc3)[C@]3(CC[C@@](C)([C@H]4CC[C@](O)(CC)[C@H](C)O4)O3)O2)[C@H](C)C[C@@H]1C.[Na+] [Compound 15] | 12.4 | 
CC[C@@H](C(=O)[C@@H](C)[C@@H](O)[C@H](C)[C@@H]1O[C@@H]([C@@H](CC)C(=O)[O-])CC[C@@H]1C)[C@H]1O[C@]2(C=C[C@H](NCc3ccc(C)cc3)[C@]3(CC[C@@](C)([C@H]4CC[C@](O)(CC)[C@H](C)O4)O3)O2)[C@H](C)C[C@@H]1C.[Na+] [Compound 16] | 12.7 | 
CC[C@@H](C(=O)[C@@H](C)[C@@H](O)[C@H](C)[C@@H]1O[C@@H]([C@@H](CC)C(=O)[O-])CC[C@@H]1C)[C@H]1O[C@]2(C=C[C@H](NCc3ccc(F)cc3)[C@]3(CC[C@@](C)([C@H]4CC[C@](O)(CC)[C@H](C)O4)O3)O2)[C@H](C)C[C@@H]1C.[Na+] [Compound 17] | 10.2 | 
CC[C@@H](C(=O)[C@@H](C)[C@@H](O)[C@H](C)[C@@H]1O[C@@H]([C@@H](CC)C(=O)[O-])CC[C@@H]1C)[C@H]1O[C@]2(C=C[C@H](NCc3ccc(Cl)cc3)[C@]3(CC[C@@](C)([C@H]4CC[C@](O)(CC)[C@H](C)O4)O3)O2)[C@H](C)C[C@@H]1C.[Na+] [Compound 18] | 11.0 | 
C#CCN(CC#C)[C@H]1C=C[C@]2(O[C@H]([C@@H](CC)C(=O)[C@@H](C)[C@@H](O)[C@H](C)[C@@H]3O[C@@H]([C@@H](CC)C(=O)O)CC[C@@H]3C)[C@@H](C)C[C@H]2C)O[C@@]12CC[C@@](C)([C@H]1CC[C@](O)(CC)[C@H](C)O1)O2 [Compound 19, C20-epi-dipropargyloaminosalinomycin] | 3.5 | IC50 [1, 4]: 2.4 µM; IC50 [2]: 8.43 µM
CC[C@@H](C(=O)[C@@H](C)[C@@H](O)[C@H](C)[C@@H]1O[C@@H]([C@@H](CC)C(=O)O)CC[C@@H]1C)[C@H]1O[C@]2(C=C[C@@H](O)[C@]3(CC[C@@](C)([C@H]4CC[C@](O)(CC)[C@H](C)O4)O3)O2)[C@H](C)C[C@@H]1C [Salinomycin] | 3.1 | IC50 [1, 4]: 1.39 ± 0.1 µM; IC50 [2]: 4.36 ± 0.5 µM; IC50 (MCF10A cells): 1.13 ± 0.14 µM
